Measured values: US20260365670A1, “EGFR INHIBITORS AND USES THEREOF” (DIZAL (JIANGSU) PHARMACEUTICAL CO., LTD., priority 2022, published 2026)
Read-outs that look alike come from different tables or passages of the source.

Experiments:
[1] = target: T1, EGFR wild type (Homo sapiens, UniProt P00533); experiment: Inhibition of EGFR wild type biochemical enzymatic activity (HTRF); details: EGFR WT, 1 mM ATP, 1 h, room temperature, read-out: IC50 (nM) @WT
T1 construct: purchased Carna Bio
Outline: (§1)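 1 mM ATP, 1 μM biotin-TK peptide, 5 mM MgCl2, 1 mM MnCl2, 0.01% CHAPS, 1 mM DTT, 0.5% DMSO; 1 h RT; EDTA stop; HTRF 665/615 nm; IC50 via 4PL.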

[2] = test system: Ba/F3 cells expressing EGFR mutations; experiment: Cell proliferation assay, Ba/F3 cells expressing EGFR mutations (CellTiter-Glo, 72 hours); format: cell-based; details: Mus musculus, BaF3, 72 h, CellTiter-Glo
Outline: (§2)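 Cells are exposed to graded compound concentrations after overnight plating, using 500 PC-9 or 5000 Ba/F3 per well. Baseline-subtracted viability is compared with vehicle to give percent proliferation, then GI50.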

[3] = target: T2, EGFR L858R (Homo sapiens, UniProt P00533, L858R); experiment: Inhibition of EGFR L858R biochemical enzymatic activity (HTRF); details: 1 mM ATP, 1 h, room temperature, read-out: IC50 (nM) @L858R
T2 construct: purchased Carna Bio
Outline: as §1

[4] = test system: PC-9; experiment: Cell proliferation assay, PC-9 cells (CellTiter-Glo, 72 hours); format: cell-based; details: Homo sapiens, PC-9, 72 h, PC9 cells, CellTiter-Glo, read-out: PC9 GI50
Outline: as §2

[5] = target: T3, EGFR[T790M/C797S/d746-750] (Homo sapiens, UniProt P00533, C797S/DEL746-750/T790M); experiment: Inhibition of EGFR[T790M/C797S/d746-750] biochemical enzymatic activity (HTRF); details: EGFR T790M-C797S-Del19, 1 mM ATP, 1 h, room temperature, read-out: IC50 (nM) @T790M - C797S - Del19
T3 construct: purchased Carna Bio
T3 sequence (P00533 with tags, fused parts or gaps DEL746-750/T790M/C797S limits assumed): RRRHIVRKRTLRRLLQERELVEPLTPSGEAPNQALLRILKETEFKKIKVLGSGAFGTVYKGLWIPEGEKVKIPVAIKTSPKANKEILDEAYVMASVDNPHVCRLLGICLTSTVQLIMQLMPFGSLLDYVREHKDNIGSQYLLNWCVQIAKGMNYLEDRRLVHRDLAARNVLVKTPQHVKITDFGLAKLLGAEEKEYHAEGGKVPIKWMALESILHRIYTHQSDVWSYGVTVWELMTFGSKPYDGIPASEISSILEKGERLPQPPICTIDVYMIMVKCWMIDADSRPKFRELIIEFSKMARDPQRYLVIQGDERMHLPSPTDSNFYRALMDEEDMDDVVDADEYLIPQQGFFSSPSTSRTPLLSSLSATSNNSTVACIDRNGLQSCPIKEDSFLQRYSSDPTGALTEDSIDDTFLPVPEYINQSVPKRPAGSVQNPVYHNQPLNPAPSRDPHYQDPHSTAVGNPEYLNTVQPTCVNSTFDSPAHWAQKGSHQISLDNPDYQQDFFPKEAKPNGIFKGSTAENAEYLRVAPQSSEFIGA
Outline: as §1

[6] = target: T4, EGFR (C797S L858R) (Homo sapiens, UniProt P00533, C797S/L858R); experiment: Inhibition of EGFR (C797S L858R) biochemical enzymatic activity (HTRF); details: EGFR L858-C797S, 1 mM ATP, 1 h, room temperature, read-out: IC50 (nM) @L858-C797S
T4 construct: purchased signalchem
Outline: as §1

[7] = target: T5, EGFR[T790M/C797S/L858R] (Homo sapiens, UniProt P00533, C797S/L858R/T790M); experiment: Inhibition of EGFR[T790M/C797S/L858R] biochemical enzymatic activity (HTRF); details: EGFR T790M-C797S-L858R, 1 mM ATP, 1 h, room temperature, read-out: IC50 (nM) @T790M- C797S - L858R
T5 construct: purchased Carna Bio
T5 sequence (P00533 25-1210 T790M/C797S/L858R): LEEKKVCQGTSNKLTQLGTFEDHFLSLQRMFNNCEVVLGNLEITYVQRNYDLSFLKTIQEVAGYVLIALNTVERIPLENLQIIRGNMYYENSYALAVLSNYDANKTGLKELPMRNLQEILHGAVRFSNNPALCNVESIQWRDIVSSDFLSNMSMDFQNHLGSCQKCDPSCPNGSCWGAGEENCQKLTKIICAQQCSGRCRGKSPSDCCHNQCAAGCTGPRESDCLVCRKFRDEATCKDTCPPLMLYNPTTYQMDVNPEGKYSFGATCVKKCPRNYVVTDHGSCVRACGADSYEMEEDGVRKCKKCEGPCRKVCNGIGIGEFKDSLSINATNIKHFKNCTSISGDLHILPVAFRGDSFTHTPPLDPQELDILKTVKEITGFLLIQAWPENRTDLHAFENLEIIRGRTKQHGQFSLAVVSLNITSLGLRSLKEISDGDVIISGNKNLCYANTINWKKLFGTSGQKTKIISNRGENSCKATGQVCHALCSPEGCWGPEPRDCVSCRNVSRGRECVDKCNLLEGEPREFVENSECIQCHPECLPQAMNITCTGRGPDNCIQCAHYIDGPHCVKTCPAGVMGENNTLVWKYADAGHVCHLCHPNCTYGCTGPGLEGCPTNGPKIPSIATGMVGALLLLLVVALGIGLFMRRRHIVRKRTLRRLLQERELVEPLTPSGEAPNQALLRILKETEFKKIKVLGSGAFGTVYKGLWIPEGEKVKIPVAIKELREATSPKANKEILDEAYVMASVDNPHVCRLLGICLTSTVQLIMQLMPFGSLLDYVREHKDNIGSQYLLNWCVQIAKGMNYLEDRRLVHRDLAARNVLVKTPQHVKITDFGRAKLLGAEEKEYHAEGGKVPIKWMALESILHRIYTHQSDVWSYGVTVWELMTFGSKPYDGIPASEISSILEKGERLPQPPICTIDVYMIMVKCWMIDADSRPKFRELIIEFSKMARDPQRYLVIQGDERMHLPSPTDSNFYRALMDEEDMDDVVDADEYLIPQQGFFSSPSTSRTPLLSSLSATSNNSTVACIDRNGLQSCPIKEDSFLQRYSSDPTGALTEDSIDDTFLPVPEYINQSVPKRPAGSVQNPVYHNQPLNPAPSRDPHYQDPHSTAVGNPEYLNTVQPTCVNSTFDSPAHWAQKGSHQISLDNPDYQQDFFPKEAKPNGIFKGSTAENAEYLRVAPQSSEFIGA
Outline: as §1

[8] = target: T6, EGFR Exon19Del (Homo sapiens, UniProt P00533, DEL746-750); experiment: Inhibition of EGFR Exon19Del biochemical enzymatic activity (HTRF); details: EGFR Del19, 1 mM ATP, 1 h, room temperature, read-out: IC50 @Del19
T6 construct: purchased Carna Bio
T6 sequence (P00533 with tags, fused parts or gaps DEL746-750 limits assumed): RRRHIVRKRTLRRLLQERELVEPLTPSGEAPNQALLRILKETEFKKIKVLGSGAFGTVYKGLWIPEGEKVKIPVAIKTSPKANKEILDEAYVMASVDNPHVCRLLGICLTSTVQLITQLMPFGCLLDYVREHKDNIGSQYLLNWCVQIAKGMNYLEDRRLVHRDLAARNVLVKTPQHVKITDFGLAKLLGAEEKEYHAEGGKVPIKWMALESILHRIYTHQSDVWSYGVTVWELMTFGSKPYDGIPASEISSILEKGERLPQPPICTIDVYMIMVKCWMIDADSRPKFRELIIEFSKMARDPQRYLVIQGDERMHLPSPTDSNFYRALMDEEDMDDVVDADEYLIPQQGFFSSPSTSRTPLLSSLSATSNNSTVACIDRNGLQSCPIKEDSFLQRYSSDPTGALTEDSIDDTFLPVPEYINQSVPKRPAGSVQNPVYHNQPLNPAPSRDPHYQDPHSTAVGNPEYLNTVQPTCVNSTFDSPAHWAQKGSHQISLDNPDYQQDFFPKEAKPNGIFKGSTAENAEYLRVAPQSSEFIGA
Outline: as §1

[9] = target: T7, EGFR L858R/T790M (Homo sapiens, UniProt P00533, L858R/T790M); experiment: Inhibition of EGFR L858R/T790M biochemical enzymatic activity (HTRF); details: EGFR L858R-T790M, 1 mM ATP, 1 h, room temperature, read-out: IC50 (nM) @L858R-T790M
T7 construct: purchased Carna Bio
Outline: as §1

[10] = test system: A-431; experiment: Cell proliferation GI50, A-431 cells (Table 6); format: cell-based; details: Homo sapiens, A-431, A-431 cells
[11] = target: T8, EGFR (d746-750 C797S) (Homo sapiens, UniProt P00533, C797S/DEL746-750); experiment: Inhibition of EGFR (d746-750 C797S) biochemical enzymatic activity (HTRF); details: EGFR Del19-C797S, 1 mM ATP, 1 h, room temperature, read-out: IC50 (nM) @Del19-C797S
T8 construct: purchased signalchem
T8 sequence (P00533 with tags, fused parts or gaps DEL746-750/C797S limits assumed): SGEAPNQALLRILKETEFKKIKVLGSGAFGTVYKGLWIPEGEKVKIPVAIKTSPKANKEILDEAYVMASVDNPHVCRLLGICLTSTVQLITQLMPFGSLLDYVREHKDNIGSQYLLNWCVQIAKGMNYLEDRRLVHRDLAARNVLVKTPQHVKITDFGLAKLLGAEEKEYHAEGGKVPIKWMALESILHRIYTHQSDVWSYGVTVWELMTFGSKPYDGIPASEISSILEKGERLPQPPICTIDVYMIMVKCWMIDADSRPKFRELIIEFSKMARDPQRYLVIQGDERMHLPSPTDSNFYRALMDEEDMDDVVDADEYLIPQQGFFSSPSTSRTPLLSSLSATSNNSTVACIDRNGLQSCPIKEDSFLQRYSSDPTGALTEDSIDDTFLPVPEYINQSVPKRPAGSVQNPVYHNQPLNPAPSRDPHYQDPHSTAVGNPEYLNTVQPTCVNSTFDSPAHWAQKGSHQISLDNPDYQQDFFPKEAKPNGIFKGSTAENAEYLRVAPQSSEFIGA
Outline: as §1

[12] = target: T9, EGFR Exon19Del/T790M (Homo sapiens, UniProt P00533, DEL746-750/T790M); experiment: Inhibition of EGFR Exon19Del/T790M biochemical enzymatic activity (HTRF); details: EGFR Del19-T790M, 1 mM ATP, 1 h, room temperature, read-out: IC50 (nM) @Del19-T790M
T9 construct: purchased Carna Bio
T9 sequence (P00533 with tags, fused parts or gaps DEL746-750/T790M limits assumed): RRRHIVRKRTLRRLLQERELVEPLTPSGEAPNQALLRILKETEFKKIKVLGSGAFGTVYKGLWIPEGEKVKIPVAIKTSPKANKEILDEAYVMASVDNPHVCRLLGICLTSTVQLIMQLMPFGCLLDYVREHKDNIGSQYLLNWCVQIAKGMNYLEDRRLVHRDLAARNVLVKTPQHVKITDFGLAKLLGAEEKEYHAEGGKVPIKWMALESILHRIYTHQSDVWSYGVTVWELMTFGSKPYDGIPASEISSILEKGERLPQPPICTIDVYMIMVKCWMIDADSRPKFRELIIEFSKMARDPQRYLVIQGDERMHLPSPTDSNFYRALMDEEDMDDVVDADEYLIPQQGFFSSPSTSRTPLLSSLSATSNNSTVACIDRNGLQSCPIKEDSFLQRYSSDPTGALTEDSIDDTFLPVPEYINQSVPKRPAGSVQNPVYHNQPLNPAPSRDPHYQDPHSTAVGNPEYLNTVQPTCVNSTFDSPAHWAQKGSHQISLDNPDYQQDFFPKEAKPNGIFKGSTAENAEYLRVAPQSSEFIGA
Outline: as §1

[13] = BaF3 cells, EGFR DEL19-C797S, read-out: DEL19-C797S/BaF3 GI50
[14] = BaF3 cells, EGFR DEL19-T790-C797S, read-out: DEL19-T790-C797S/BaF3 GI50
[15] = BaF3 cells, EGFR L858R, read-out: L858R/BaF3 GI50
[16] = BaF3 cells, EGFR L858R-C797S, read-out: L858R-C797S/BaF3 GI50
[17] = BaF3 cells, EGFR L858R-T790-C797S, read-out: L858R-T790-C797S/BaF3 GI50
[18] = BaF3 cells, EGFR L858R-T790M, read-out: L858R-T790M/BaF3 GI50
[19] = EGFR DEL19-T790M, read-out: DEL19-T790M GI50

T1 sequence (P00533 25-1210): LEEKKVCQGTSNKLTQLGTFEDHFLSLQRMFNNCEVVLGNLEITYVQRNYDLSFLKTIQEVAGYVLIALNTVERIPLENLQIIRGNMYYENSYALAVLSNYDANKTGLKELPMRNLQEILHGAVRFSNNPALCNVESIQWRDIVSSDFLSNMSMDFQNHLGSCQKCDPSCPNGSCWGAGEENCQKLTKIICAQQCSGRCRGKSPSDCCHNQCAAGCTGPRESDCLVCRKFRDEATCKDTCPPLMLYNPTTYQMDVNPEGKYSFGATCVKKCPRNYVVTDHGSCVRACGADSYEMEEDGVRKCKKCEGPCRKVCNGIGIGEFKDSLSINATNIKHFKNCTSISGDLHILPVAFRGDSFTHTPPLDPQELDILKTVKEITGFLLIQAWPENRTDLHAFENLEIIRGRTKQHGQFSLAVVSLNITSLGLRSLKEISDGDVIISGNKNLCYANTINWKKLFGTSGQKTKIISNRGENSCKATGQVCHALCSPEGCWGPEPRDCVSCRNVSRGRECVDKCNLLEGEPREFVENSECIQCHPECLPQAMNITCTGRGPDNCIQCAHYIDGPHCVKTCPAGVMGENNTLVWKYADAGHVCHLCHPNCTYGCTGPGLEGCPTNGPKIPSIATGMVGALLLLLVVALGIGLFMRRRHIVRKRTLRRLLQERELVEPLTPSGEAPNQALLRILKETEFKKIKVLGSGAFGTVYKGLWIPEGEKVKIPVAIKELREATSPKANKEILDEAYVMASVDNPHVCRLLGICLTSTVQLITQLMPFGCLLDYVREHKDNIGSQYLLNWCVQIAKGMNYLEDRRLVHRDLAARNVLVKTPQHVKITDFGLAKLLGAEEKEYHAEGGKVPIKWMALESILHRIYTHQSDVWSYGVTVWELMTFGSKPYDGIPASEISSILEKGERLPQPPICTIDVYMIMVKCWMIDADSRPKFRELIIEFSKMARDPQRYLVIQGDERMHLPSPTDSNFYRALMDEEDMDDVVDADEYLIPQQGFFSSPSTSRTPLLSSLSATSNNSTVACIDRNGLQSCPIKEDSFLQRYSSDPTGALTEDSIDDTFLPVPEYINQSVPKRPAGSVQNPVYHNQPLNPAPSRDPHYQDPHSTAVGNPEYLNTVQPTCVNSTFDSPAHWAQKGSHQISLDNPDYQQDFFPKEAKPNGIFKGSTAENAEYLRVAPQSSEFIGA

Compound	IC50 [1]	GI50 [2, 13]	GI50 [2, 14]	GI50 [2, 15]	GI50 [2, 16]	GI50 [2, 17]	GI50 [2, 18]	GI50 [2, 19]	IC50 [3]	GI50 [4]	IC50 [5]	IC50 [6]	IC50 [7]	IC50 [8]	IC50 [9]	GI50 [10]	IC50 [11]	IC50 [12]
C[C@@H]1CCCOc2c(cnn2C)-c2cc(cn(C)c2=O)C(=O)Nc2nc3ccc(N4CC5(CN(C)C5)C4)cc3n2C1 [Example A40]	71 nM	1.7 nM	4.2 nM	4 nM	5.4 nM	4.7 nM	17 nM	7.7 nM	11 nM	17 nM	4.3 nM	6.7 nM	5.2 nM	4.4 nM	6.1 nM	642 nM	2.3 nM	4.5 nM
C[C@@H]1CCCOc2c(cnn2C)-c2cc(cn(C)c2=O)C(=O)Nc2nc3ccc(N4CC5(CCN(C)CC5)C4)cc3n2C1 [Example A41]	74 nM	0.33 nM	1.1 nM	0.47 nM	1.4 nM	0.57 nM	2.9 nM	1.4 nM	10 nM	2.9 nM	3.1 nM	5.3 nM	3.2 nM	2.3 nM	5.1 nM	314 nM	1.7 nM	3.5 nM
C[C@@H]1CCCOc2c(cnn2C)-c2cc(cn(C)c2=O)C(=O)Nc2nc3ccc(N4CC5(CCN(C)C5)C4)cc3n2C1 [Example A42]	42 nM	0.47 nM	1.8 nM	0.75 nM	2.1 nM	1.6 nM	8.7 nM	2.2 nM	8.9 nM	2.5 nM	4.5 nM	6.7 nM	5.1 nM	3 nM	6.8 nM	279 nM	2.5 nM	5.4 nM
C[C@@H]1CCCOc2c(cnn2C)-c2cc(cn(C)c2=O)C(=O)Nc2nc3ccc(N4CCC5(CN(C)C5)C4)cc3n2C1 [Example A43]	295 nM	1 nM	3.6 nM	2.6 nM	3.4 nM	2.5 nM	9.5 nM	5.2 nM	21 nM	5.7 nM	4.4 nM	8.9 nM	7.1 nM	4.5 nM	13 nM	508 nM	2.2 nM	3.7 nM
C[C@@H]1CCCOc2c(cnn2C)-c2cc(cn(C)c2=O)C(=O)Nc2nc3ccc(N4CC5(CCCN5C)C4)cc3n2C1 [Example A44]	236 nM	2 nM	14 nM	4.4 nM	7 nM	5.3 nM	27 nM	16 nM	34 nM	14 nM	3.1 nM	15 nM	8.8 nM	4.9 nM	15 nM	232 nM	3 nM	3.3 nM
C[C@@H]1CCCOc2c(cnn2C)-c2cc(cn(C)c2=O)C(=O)Nc2nc3ccc(N4CC(N5CCN(C)CC5)C4)cc3n2C1 [Example A46]	104 nM	1.2 nM	6.8 nM	3.1 nM	2.4 nM	2 nM	12 nM	8.1 nM	14 nM	5.4 nM	3.9 nM	8.5 nM	5.7 nM	2.6 nM	8.5 nM	221 nM	2.2 nM	4.1 nM
C[C@@H]1CCCOc2c(cnn2C)-c2cc(cn(C)c2=O)C(=O)Nc2nc3ccc(N4CC5(CN(C)CCO5)C4)cc3n2C1 [Example A47]	1130 nM	1.7 nM	9.7 nM	4 nM	3.2 nM	3.4 nM	17 nM	12 nM	46 nM	7 nM	4.2 nM	20 nM	4.9 nM	4.5 nM	9.5 nM	200 nM	2.5 nM	4.2 nM
C[C@@H]1CCCOc2c(cnn2C)-c2cc(cn(C)c2=O)C(=O)Nc2nc3ccc(N4CCN(C5CC5)CC4)cc3n2C1 [Example A48]	2250 nM	9.4 nM	48 nM	20 nM	26 nM	21 nM	94 nM	53 nM	40 nM	38 nM	3.1 nM	28 nM	4.4 nM	3.1 nM	5 nM	573 nM	2.1 nM	2.8 nM
